From patent US20130064907A1, “COMBINATIONS OF ANTIFUNGAL COMPOUNDS AND TEA TREE OIL” (priority 2010, published 2013)

What was measured:
Assay type in all cases: in vivo
pepper powdery mildew [1] = test: Pepper Powdery Mildew - Site 1, foliar sprays; settings: 14 days from third application; TG 0.3%, Triadimenol 75 cc/dunam, Azoxystronin 50 cc/dunam, Trifloxystrobin 20 cc/dunam, alone or combined with TG
Procedure: (§1) Various combinations of TTO (supplied as Timorex Gold®) and synthetic fungicidal compositions (supplied as commercial products to be diluted by the end user prior to use) were tested against tomato powdery mildew and pepper powdery mildew. Open field or greenhouse-grown plants of the crops studied were drip irrigated and fertilized according to known recommendations for each crop. Treatments were applied in a randomized complete block, with 5 replications per treatment. Plot size in each instance was of 5-10 m length, containing 6-20 plants, depending on the crop. Fungicidal treatment was applied using backpack sprayer equipped with a mist blower (STHIL 340) to spray a volume of 600 liter/ha, depending on the crop. From three to eight foliar sprays were applied at 7-14 day intervals, depending on the crop. Disease severity was evaluated by determining the leaf area covered with powdery mildew (disease severity) on each of 20 leaves randomly selected per each replicate. […] To analyze the results, an arc-sin transformation was performed on the raw data, and analysis of variance (ANOVA) using the SAS GLM procedure was applied to the transformed data. The Tukey-Kramer Test was applied to determine whether differences between treatments were significant. In the tables, “a”, “b” and “c”, refer to differences in statistical analysis that are familiar to users of the Tukey-Kramer test; “SF” is the “synergy” factor, calculated using the Abbott formula (SF=observed efficacy (Eobs)/expected efficacy (Eexp), where Eexp=α+β−[…], where α and β denote the levels of control afforded by materials α and β, respectively, alone; see e.g. Levy et al., EPPO Bull. 16, 651-657 (1986)).

pepper powdery mildew [2] = test: Pepper Powdery Mildew - Site 2, foliar sprays; settings: 15 days from ninth application; TG 0.3%, Trifloxystrobin 20 gr/dunam, Myclobutanil 60 gr/dunam, alone or combined with TG
Procedure: Various combinations of TTO (supplied as Timorex Gold®) and synthetic fungicidal compositions (supplied as commercial products to be diluted by the end user prior to use) were tested against tomato powdery mildew and pepper powdery mildew. Open field or greenhouse-grown plants of the crops studied were drip irrigated and fertilized according to known recommendations for each crop. Treatments were applied in a randomized complete block, with 5 replications per treatment. Plot size in each instance was of 5-10 m length, containing 6-20 plants, depending on the crop. Fungicidal treatment was applied using backpack sprayer equipped with a mist blower (STHIL 340) to spray a volume of 600 liter/ha, depending on the crop. […] Disease severity was evaluated by determining the leaf area covered with powdery mildew (disease severity) on each of 20 leaves randomly selected per each replicate. […] To analyze the results, an arc-sin transformation was performed on the raw data, and analysis of variance (ANOVA) using the SAS GLM procedure was applied to the transformed data. The Tukey-Kramer Test was applied to determine whether differences between treatments were significant. In the tables, “a”, “b” and “c”, refer to differences in statistical analysis that are familiar to users of the Tukey-Kramer test; “SF” is the “synergy” factor, calculated using the Abbott formula (SF=observed efficacy (Eobs)/expected efficacy (Eexp), where Eexp=α+β−[…], where α and β denote the levels of control afforded by materials α and β, respectively, alone; see e.g. Levy et al., EPPO Bull. 16, 651-657 (1986)).

tomato powdery mildew = test: Tomato Powdery Mildew - Site 1, foliar sprays; settings: 12 days from fourth application; TG 0.3%, Azoxystrobin 50 cc/dunam, alone or combined
Procedure: as §1

Compound | Incidence: % leaves infected (pepper powdery mildew [1]) [%] | Incidence: Efficacy (%) (pepper powdery mildew [1]) | Severity: % infected leaf area (pepper powdery mildew [1]) [%] | Severity: Efficacy (%) (pepper powdery mildew [1]) | Incidence: % leaves infected (pepper powdery mildew [2]) [%] | Incidence: Efficacy (%) (pepper powdery mildew [2]) | Severity: % infected leaf area (pepper powdery mildew [2]) [%] | Severity: Efficacy (%) (pepper powdery mildew [2]) | Incidence: % leaves infected (tomato powdery mildew) [%] | Incidence: Efficacy (%) (tomato powdery mildew) | Severity: % infected leaf area (tomato powdery mildew) [%] | Severity: Efficacy (%) (tomato powdery mildew)
CON=C(C(=O)OC)c1ccccc1CON=C(C)c1cccc(C(F)(F)F)c1 [Trifloxystrobin] | 25 | 70.1 | 1.9 | 92.2 | 2 | 96.9 | 0.1 | 99.6 |  |  |  | 
CO/C=C(/C(=O)OC)c1ccccc1Oc1cc(Oc2ccccc2C#N)ncn1 [Azoxystrobin] | 22.5 | 73.1 | 2.9 | 88.1 |  |  |  |  | 45 | 55.0 | 5 | 91.7
CC(C)(C)C(O)C(Oc1ccc(Cl)cc1)n1cncn1 (stereo not drawn) [Triadimenol] | 48.7 | 41.8 | 8.4 | 65.6 |  |  |  |  |  |  |  | 
CCCCC(C#N)(Cn1cncn1)c1ccc(Cl)cc1 (stereo not drawn) [Myclobutanil] |  |  |  |  | 2 | 96.9 | 0 | 100.0 |  |  |  | 
